We go through one compound from US20030225002A1, “Co-therapy for the treatment of migraine comprising anticonvulsant derivatives and anti-migraine agents” (priority 2002, published 2003).

Test [1] concerns persistent daily headache with migraine features. The test can be described thus: Case Study 1: persistent daily headache with migraine features. The test is classed as in vivo, human. The conditions noted are these: topiramate 75 mg/day with INDERAL at 20 mg/day. The source says:
The patient was a person with persistent daily headache with migraine features.

The test system of test [2] is refractory migraine (migraine without aura). The test can be described thus: Case Study 2: refractory migraine without aura. The test is classed as in vivo, human. The conditions noted are these: 75 mg/day topiramate, 20 mg/day CORGARD and 20 mg/day CELEXA. As to the method:
The patient was a person with a lifelong history of refractory migraine (migraine without aura), averaging 8 migraines per month. […] The patient was started on topiramate at 25 mg/day, with dosage increasing to 75 mg/day. Simultaneously, the beta-blocker, CORGARD dosage was decreased to 20 mg/day, with CELEXA at 20 mg/day also continued.

The subject of a further test is seizures. The conditions noted are these: several rodent models of epilepsy; cited from earlier work.

`CC1(C)O[C@@H]2[C@@H](CO[C@@]3(COS(N)(=O)=O)OC(C)(C)O[C@@H]23)O1` [topiramate, 2,3:4,5-bis-O-(1-methylethylidene)-β-D-fructopyranose sulfamate]: in test [1], the “Effect on daily headaches” value was “significant improvement and resolution of the daily headaches”; the “Migraine headache frequency on treatment” value was “approximately one per week”. Besides, in test [2], the Headache frequency entry is “significant decrease in headache frequency” and the Headache-free time result is listed as “no headache for up to four weeks”. In the test with seizures, the Block of seizures entry is “effectively block seizures”.
